Reference: PubChem BioAssay AID2060345 (Molecular Pharmacology Branch, DTP, NCI, 2025)
“And” between values parts separate entries of the source, which are not always exact repeats. Identical values can stand only once.

Tested on: MALME-3M multicell spheroids, viability
Assay: Anticancer human tumor MALME-3M cell line growth inhibition [TAK];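 further: spheroids exposed to drugs for seven days before readout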;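 on viability, T/C: 100% = DMSO vehicle control viability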
Details: for viability, T/C: stronger effect = lower value
Text: Combinatorial screen of targeted agents with TAK-243 and ipatasertib in multi-cell type tumor spheroids
A high-throughput screen of multi-cell type tumor spheroids was designed to identify active combinations of targeted small molecules and TAK-243 or ipatasertib. Complex spheroids include a stromal component modeled by human endothelial cells (HUVEC) and fibroblasts modeled by human mesenchymal stem cells (MSCs). The concentration ranges selected for each drug and investigational agent were based upon clinically achievable concentrations if the clinical Cmax of the agent was known.
Compounds. The drugs and investigational agents: TAK-243 (785004), ipatasertib (767898), everolimus (733504), selumetinib (741078), bortezomib (756655), trametinib (758246), ixazomib (758254), vemurafenib (761431), dabrafenib (764134), sapanisertib (764658), alpelisib (765974), and copanlisib (816437), were obtained from the National Cancer Institute (NCI) Developmental Therapeutics Program Chemical Repository. The FDA-approved anticancer drug set is available from the NCI Developmental Therapeutics Program. […] The stock solutions were prepared in dimethyl sulfoxide (DMSO, Sigma-Aldrich, St. Louis, MO, cat. D2650) at 800-fold the tested concentration and stored at -70 degrees C prior to their use. All drugs and investigational agents were tested over a range starting from a high concentration at or near the clinical Cmax and decreasing in half-log increments. If the clinical Cmax for an agent had not been determined, the highest concentration tested was 10 microM.
NCI60 Cell Culture. NCI60 cell lines were obtained from the NCI Developmental Therapeutics Program Tumor Repository. For each lot of cells, the Repository performed Applied Biosystems AmpFLSTR Identifiler testing with PCR amplification to confirm consistency with the published Identifier STR profile for each cell line. Cells were kept in continuous culture for no more than 20 passages. The optimal seeding densities for each of the cell lines at each time point assessed were determined prior to performing the concentration response studies. Briefly, the NCI60 human tumor lines were grown as monolayers in RPMI 1640 medium supplemented with 10% FBS and 2 mmol/L L-glutamine.
An additional 2 lines were from the NCI60 cell line panel including melanomas, MALME-3M and SK-MEL-2. Pooled donor human umbilical vein endothelial cells (HUVEC, Lonza, cat. CC-2519) and human mesenchymal stem cells (hMSC, Lonza, cat. PT-2501) were purchased from Lonza (Walkersville, MD).
PDMR cell lines were grown in complete medium (DC medium): Dulbecco's modified Eagle's medium (DMEM)/F12 supplemented with 5% fetal bovine serum (FBS), 2 mM L-glutamine, 100 U/mL penicillin and 100 µg/ml streptomycin, 0.4 µg/ml hydrocortisone, 10 ng/ml epidermal growth factor (EGF) recombinant human protein, 24 µg/mL adenine, and 0.1 mg/mL primocin. During culture from frozen stock vials, PDMR cells were cultured in the same medium containing 10 µM Y-27632 (see Table 3). The PDCs were cultured in complete DMEM/F12 media without 10 microM Y-27632 dihydrochloride for at least two passages prior to the screen. The pooled donor HUVEC and hMSC were cultured in endothelial cell growth medium 2 (PromoCell, Heidelberg, Germany, cat. C-22011) and mesenchymal stem cell growth medium 2 (PromoCell, cat. C-28009), respectively. For all experiments, HUVEC and hMSC were used at passages </=5.
For the pre-screen, cell seeding densities were determined from a titration spanning the range from 5,000 to 313 cells per well. The mct-spheroids including 60% malignant cells, 25% HUVEC and 15% MSC dispensed as a mixture into U-bottom Ultra-Low Attachment 384-well plates (Corning, NY)
High-throughput Drug Combination Screening.
Prior to their inoculation into 384-well plates, malignant cells, HUVEC, and hMSC were removed from T flasks using TrypLE express (Thermo Fisher Scientific, cat. 12605036) and harvested by centrifugation for 5 min at 233 x g. […]

[1] = curve of first compound, second compound 0.3 µM
[2] = curve of first compound, second compound 0.949 µM
[3] = curve of first compound, second compound 3 µM
[4] = curve of first compound, second compound 9.49 µM
[5] = curve of first compound, second compound 30 µM
[6] = second compound 0.3 µM, first compound 0.316 µM
[7] = second compound 0.3 µM, first compound 1 µM
[8] = second compound 0.949 µM, first compound 0.316 µM
[9] = second compound 0.949 µM, first compound 1 µM
[10] = second compound 3 µM, first compound 0.316 µM
[11] = second compound 3 µM, first compound 1 µM
[12] = second compound 9.49 µM, first compound 0.316 µM
[13] = second compound 9.49 µM, first compound 1 µM
[14] = second compound 30 µM, first compound 0.316 µM
[15] = second compound 30 µM, first compound 1 µM
[16] = second compound 0.3 µM, first compound 0.00316 µM
[17] = second compound 0.3 µM, first compound 0.01 µM
[18] = second compound 0.949 µM, first compound 0.00316 µM
[19] = second compound 0.949 µM, first compound 0.01 µM
[20] = second compound 3 µM, first compound 0.00316 µM
[21] = second compound 3 µM, first compound 0.01 µM
[22] = second compound 9.49 µM, first compound 0.00316 µM
[23] = second compound 9.49 µM, first compound 0.01 µM
[24] = second compound 30 µM, first compound 0.00316 µM
[25] = second compound 30 µM, first compound 0.01 µM

For `CCCS(=O)(=O)Nc1ccc(F)c(C(=O)c2c[nH]c3ncc(-c4ccc(Cl)cc4)cc23)c1F` + CC(C)NCC(C(=O)N1CCN(c2ncnc3c2C(C)CC3O)CC1)c1ccc(Cl)cc1, the IC50 [1] was less than 0.316 µM, the IC50 [2] was less than 0.316 µM and the IC50 [3] was less than 0.316 µM. The IC50 [4] was less than 0.316 µM, the IC50 [5] was less than 0.316 µM and the viability, T/C [6] was 29.3%. The viability, T/C [7] was 21.5%, the viability, T/C (second compound 0.3 µM, first compound 3.16 µM) was 23.6% and the viability, T/C (second compound 0.3 µM, first compound 10 µM) was 19.3%. For the same molecule, the viability, T/C (second compound 0.3 µM, first compound 31.6 µM) was 0.51%, the viability, T/C (second compound 0.3 µM, first compound 100 µM) was 11.1% and the viability, T/C [8] was 31.8%. The viability, T/C [9] was 25.8%, the viability, T/C (second compound 0.949 µM, first compound 3.16 µM) was 23.6% and the viability, T/C (second compound 0.949 µM, first compound 10 µM) was 22.1%. It also gave a viability, T/C (second compound 0.949 µM, first compound 31.6 µM) of 2.72%, a viability, T/C (second compound 0.949 µM, first compound 100 µM) of 12.1% and a viability, T/C [10] of 30%. The viability, T/C [11] was 24.9%, the viability, T/C (second compound 3 µM, first compound 3.16 µM) was 21.4% and the viability, T/C (second compound 3 µM, first compound 10 µM) was 15.9%. For the same molecule, the viability, T/C (second compound 3 µM, first compound 31.6 µM) was 1.69%, the viability, T/C (second compound 3 µM, first compound 100 µM) was 3.88% and the viability, T/C [12] was 24.8%. It also gave a viability, T/C [13] of 20.6%, a viability, T/C (second compound 9.49 µM, first compound 3.16 µM) of 17.9% and a viability, T/C (second compound 9.49 µM, first compound 10 µM) of 10.8%. It also gave a viability, T/C (second compound 9.49 µM, first compound 31.6 µM) of 0.89%, a viability, T/C (second compound 9.49 µM, first compound 100 µM) of 1.65% and a viability, T/C [14] of 15.1%. It also gave a viability, T/C [15] of 16.4%, a viability, T/C (second compound 30 µM, first compound 3.16 µM) of 9.92% and a viability, T/C (second compound 30 µM, first compound 10 µM) of 0.89%. For the same molecule, the viability, T/C (second compound 30 µM, first compound 31.6 µM) was 0.35% and the viability, T/C (second compound 30 µM, first compound 100 µM) was 0.54%.

`CCCS(=O)(=O)Nc1ccc(F)c(C(=O)c2c[nH]c3ncc(-c4ccc(Cl)cc4)cc23)c1F` was tested, and the viability, T/C (compound 0.316 µM) was 26.3% and 29.5%, the viability, T/C (compound 1 µM) was 22.6% and 22.5% and the viability, T/C (compound 3.16 µM) was 19.4% and 20.7%. The viability, T/C (compound 10 µM) was 15.4% and 17%, the viability, T/C (compound 31.6 µM) was 19.3% and 3.37% and the viability, T/C (compound 100 µM) was 15.6% and 16.2%. It also gave an IC50 (curve of compound) of less than 0.316 µM.

In the case of `COc1c(OCCCN2CCOCC2)ccc2c3n(c(=NC(=O)c4cnc(N)nc4)nc12)CCN3` + CC(C)NCC(C(=O)N1CCN(c2ncnc3c2C(C)CC3O)CC1)c1ccc(Cl)cc1, the IC50 [1] is reported as 0.125 µM, the IC50 [2] is reported as 0.109 µM and the IC50 [3] is reported as 0.0662 µM. For the same molecule, the IC50 [4] was 0.0414 µM, the IC50 [5] was 0.0059 µM and the viability, T/C [16] was 109%. The viability, T/C [17] was 96.3%, the viability, T/C (second compound 0.3 µM, first compound 0.0316 µM) was 76.3% and the viability, T/C (second compound 0.3 µM, first compound 0.1 µM) was 62.2%. For the same molecule, the viability, T/C [6] was 23.1%, the viability, T/C [7] was 12.3% and the viability, T/C [18] was 98.4%. For the same molecule, the viability, T/C [19] was 95%, the viability, T/C (second compound 0.949 µM, first compound 0.0316 µM) was 76.2% and the viability, T/C (second compound 0.949 µM, first compound 0.1 µM) was 55.3%. It also gave a viability, T/C [8] of 22.3%, a viability, T/C [9] of 11.7% and a viability, T/C [20] of 82.3%. The viability, T/C [21] was 81.8%, the viability, T/C (second compound 3 µM, first compound 0.0316 µM) was 63.1% and the viability, T/C (second compound 3 µM, first compound 0.1 µM) was 43.6%. The viability, T/C [10] was 16.7%, the viability, T/C [11] was 10.6% and the viability, T/C [22] was 69.8%. It also gave a viability, T/C [23] of 72.8%, a viability, T/C (second compound 9.49 µM, first compound 0.0316 µM) of 54.2% and a viability, T/C (second compound 9.49 µM, first compound 0.1 µM) of 31.3%. The viability, T/C [12] was 15.3%, the viability, T/C [13] was 11.8% and the viability, T/C [24] was 45.8%. It also gave a viability, T/C [25] of 56.7%, a viability, T/C (second compound 30 µM, first compound 0.0316 µM) of 39.3% and a viability, T/C (second compound 30 µM, first compound 0.1 µM) of 26.5%. For the same molecule, the viability, T/C [14] was 10.6% and the viability, T/C [15] was 6.33%.

`CC(C)CC(NC(=O)C(Cc1ccccc1)NC(=O)c1cnccn1)B(O)O` (configuration not stated) + CC(C)NCC(C(=O)N1CCN(c2ncnc3c2C(C)CC3O)CC1)c1ccc(Cl)cc1 was tested, and the IC50 [1] was 0.00251 µM, the IC50 [2] was 0.00226 µM and the IC50 [3] was 0.00229 µM. It also gave an IC50 [4] of 0.00186 µM, an IC50 [5] of 0.00105 µM and a viability, T/C (second compound 0.3 µM, first compound 31.6 pM) of 124%. The viability, T/C (second compound 0.3 µM, first compound 0.0001 µM) was 103%, the viability, T/C (second compound 0.3 µM, first compound 0.000316 µM) was 108% and the viability, T/C (second compound 0.3 µM, first compound 0.001 µM) was 122%. The viability, T/C [16] was 33.9%, the viability, T/C [17] was 0.71% and the viability, T/C (second compound 0.949 µM, first compound 31.6 pM) was 113%. The viability, T/C (second compound 0.949 µM, first compound 0.0001 µM) was 110%, the viability, T/C (second compound 0.949 µM, first compound 0.000316 µM) was 107% and the viability, T/C (second compound 0.949 µM, first compound 0.001 µM) was 111%. It also gave a viability, T/C [18] of 25.4%, a viability, T/C [19] of 0.85% and a viability, T/C (second compound 3 µM, first compound 31.6 pM) of 86.4%. For the same molecule, the viability, T/C (second compound 3 µM, first compound 0.0001 µM) was 95.8%, the viability, T/C (second compound 3 µM, first compound 0.000316 µM) was 91.2% and the viability, T/C (second compound 3 µM, first compound 0.001 µM) was 91.5%. For the same molecule, the viability, T/C [20] was 33.9%, the viability, T/C [21] was 0.73% and the viability, T/C (second compound 9.49 µM, first compound 31.6 pM) was 81%. For the same molecule, the viability, T/C (second compound 9.49 µM, first compound 0.0001 µM) was 87.5%, the viability, T/C (second compound 9.49 µM, first compound 0.000316 µM) was 75.5% and the viability, T/C (second compound 9.49 µM, first compound 0.001 µM) was 83.4%. The viability, T/C [22] was 22.7%, the viability, T/C [23] was 0.55% and the viability, T/C (second compound 30 µM, first compound 31.6 pM) was 54.9%. It also gave a viability, T/C (second compound 30 µM, first compound 0.0001 µM) of 57.2%, a viability, T/C (second compound 30 µM, first compound 0.000316 µM) of 52% and a viability, T/C (second compound 30 µM, first compound 0.001 µM) of 51.7%. For the same molecule, the viability, T/C [24] was 13.2% and the viability, T/C [25] was 0.96%.
